Test results taken from patent US11779572B1, “Methods of treating gastrointestinal stromal tumors” (Deciphera Pharmaceuticals, LLC, priority 2022, dated 2023).
Like-named read-outs stand apart in the source and are kept apart here.

How the values were obtained:
[1] = Coadministration with pantoprazole (proton-pump inhibitor); assay type: in vivo, human; conditions: 40 mg QD pantoprazole with 150 mg QD ripretinib
Method: The effect of a proton-pump inhibitor on the exposure of ripretinib was evaluated.

[2] = Food effect (high-fat meal) on exposure; assay type: in vivo, human; conditions: 150 mg dose of ripretinib
Method: The effect of a high-fat breakfast on ripretinib and Compound A exposure was evaluated. A high fat meal consisted of approximately 150, 250, and 500-600 calories from protein, carbohydrate, and fat, respectively. […] The food effect is not considered to be clinically significant based on exposure-response analysis. Therefore, ripretinib may be taken with or without food at approximately same time each day.

[3] = Unbound fraction / plasma protein binding; assay type: in vitro ADME, human; conditions: human, plasma, oral, 50 mg, read-out: unbound fraction fu %
Description: (§1) Both ripretinib and DP-5439 display high binding to plasma proteins in vitro; therefore, clinical samples were collected to investigate the effect of HI on the unbound fraction (fu) % for both analytes. Distributions of individual mean fu % for both ripretinib and DP-5439 show high variability between participants. The ripretinib mean fu % was ≤0.6% in healthy participants and in participants with hepatic impairment. The DP-5439 fu % was ≤0.5% in healthy participants and 0.2% to 1.4% in participants with hepatic impairment. No clear trend could be established between unbound ripretinib and DP-5439 PK parameters and the degrees of HI.

[4] = test system: plasma proteins; test: Unbound fraction / plasma protein binding; assay type: in vitro ADME, human
Description: as §1

[5] = Observed clinical PK after single and multiple doses; assay type: in vivo; conditions: human, plasma, oral; SD administration, healthy participants
Method: CYP3A4 inactivation parameters and induction parameters were subsequently incorporated in the model to assess the net effect on drug clearance at steady state. Due to the uncertainty in the in vitro CYP3A4 MBI data and CYP3A4 induction data, a series of sensitivity analysis was performed. […] Therefore, the in vitro CYP3A4 interaction data were used in the final model. The simulated profiles of ripretinib and DP-5439 in virtual participants were compared to the clinical data. […] The predicted mean AUC0-12 values for DP-5439 on Day 1 were within 2-fold (majority within 1.5-fold) of the observed values, except for the 250-mg QD dose. The mean AUC0-12 and Cmax values for DP-5439 on Day 15 were under-predicted. […] For example, the reported AUCs for ripretinib and DP-5439 at the 150-mg QD dose level were 1.66 and 5.29, respectively. […] The mechanisms for the accumulation of DP-5439 were unclear.

[6] = PBPK model of ripretinib and DP-5439 (Simcyp Simulator)

- plasma exposure when ripretinib is coadministered with pantoprazole [1]: No clinically significant differences
- AUC0-24h higher with a high-fat meal [2]: 47%
- Cmax higher with a high-fat meal [2]: 66%
- fraction unbound ([3]; healthy participants): ≤ 0.005
- fraction unbound ([3]; participants with hepatic impairment): 0.002 to 0.014
- binding to plasma proteins ([4]; in vitro): high binding
- half-life [5]: ~17 h
- all predictions relative to observed ([6]; 150 mg QD dose): ≤ 2 fold
- predicted mean AUC0-12 relative to observed values ([6]; Day 1, except 250-mg QD dose): ≤ 2 fold
Structure (SMILES): CCn1c(=O)c(-c2cc(NC(=O)Nc3ccccc3)c(F)cc2Br)cc2cnc(N)cc21 [Compound A]
- impact of HI (albumin, ALP, ALT, AST, bilirubin changes) on unbound exposure ([4]; visual assessment): did not appear to have an impact
